How the values were obtained:
[1] = molecular target: T1, recombinant human (rh) KLK5 protease (Homo sapiens, UniProt Q9Y337); assay: Enzymatic activity of Kallikrein 5 (KLK5), fluorogenic peptide substrate Boc-V-P-R-AMC; assay type: biochemical; details: for KLK5 activity compared to that of salicylic acid: relative to salicylic acid; for stimulation of KLK5 enzymatic activity: rhKLK5 pre-incubated with test compound 60 seconds, rate of substrate cleavage
T1 construct: purchased R&D Systems 1108-SE
T1 sequence (Q9Y337 23-293): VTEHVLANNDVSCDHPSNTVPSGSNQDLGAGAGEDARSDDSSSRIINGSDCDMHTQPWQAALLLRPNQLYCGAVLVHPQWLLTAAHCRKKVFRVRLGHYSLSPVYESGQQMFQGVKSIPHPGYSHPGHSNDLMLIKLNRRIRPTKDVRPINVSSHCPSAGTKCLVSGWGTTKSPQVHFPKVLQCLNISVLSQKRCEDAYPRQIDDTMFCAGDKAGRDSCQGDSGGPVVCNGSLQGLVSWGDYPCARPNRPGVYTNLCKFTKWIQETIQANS
From the text: In the stratum corneum, skin's outermost layer, cell-to-cell cohesion depends primarily on proteins known as the corneodesmosomes. During skin remodeling and renewal dead cells are shed from the skin surface by the action of native proteases that break down the corneodesmosomes. […] Hypothetically, up-regulation of the activities of these proteases using different active candidates could be utilized to increase the rate of shedding of dead skin, thus providing a natural means for skin exfoliation. To this end, the enzymatic activity of a member of the KLK family, recombinant human (rh) KLK5, was monitored following pre-incubation with actives and measuring the rate of peptide bond cleavage of a synthetic substrate.
Enzymatic activity of KLK5 was measured by incubating recombinant human (rh) KLK5 protease (R&D Systems, Cat No. 1108-SE) with a specific fluorogenic peptide substrate Boc-V-P-R-AMC (R& D Systems, Cat No. ES011). The substrate is conjugated to a quenched fluorescent group. Upon cleavage of the adjacent peptide bond, the fluorescent signal is released, resulting in a measurable emission at 535 nm when excited at 340 nm wavelength. Increase in fluorescence reading indicates an increase in rhKLK5 activity. The test compounds were reacted with recombinant rhKLK5 protease for 60 seconds followed by addition of Boc-V-P-R-AMC Fluorogenic Peptide Substrate. After 60 seconds of incubation, fluorescence was measured at 340 nm (Excitation wavelength) and […] (Emission wavelength) every 1 minute for 7 minutes. Rate (kinetics) of enzyme activity was calculated as follows: Rate of enzyme activity=Change of fluorescent reading (after background correction)/Change of reaction time (min). Percent change of activity due to a test compound was calculated by comparing rate of enzyme activity in the presence of the test compound to that of a control without the test compound and statistical significance was calculated using a t-test. Additionally, the rate of activity of the compounds was compared to that of salicylic acid.

[2] = Skin PAMPA parallel artificial membrane penetration assay; assay type: in vitro ADME; details: donor pH 4.25, acceptor pH 7.4, 50 nM, two hours incubation; relative to salicylic acid
Experimental: Several salicylic acid derivatives were assessed for their ability to penetrate skin. Each of the compounds was formulated in an aqueous buffer, with a final pH of 4.25 at a concentration of 50 nM. The skin permeability of the compounds was measured using a high throughput transdermal permeability model, the parallel artificial membrane penetration assay (Skin PAMPA™), which uses a skin mimetic artificial membrane that simulates the barrier properties of the strateum corneum.
Briefly, the Skin PAMPA™ assay is a sandwich assay that utilizes two 96-well plate assemblies, one of which acts as the acceptor chambers (comprising a buffer), and one of which acts as the donor chambers (comprising a buffer and the compound to be tested). […] After an incubation period, the donor and acceptor chambers are analyzed for the amount of compound present.
In the current experiments, the acceptor chamber included an acceptor solution made from Prisma™ HT buffer solution (Pion, Inc.) that was adjusted to a pH of 7.4±0.05 using 1.0 M NaOH, and the donor chamber included a donor solution made from Prisma™ HT buffer solution (Pion, Inc.) that was adjusted to a pH of 4.25±0.05 using 1.0 M NaOH. […] Effective permeability was then calculated by the same method as Sinko et al., Eur. J. Pharm. […]

| stimulation of KLK5 enzymatic activity [1] | skin permeability (effective permeability) [2] | SMILES | KLK5 activity compared to that of salicylic acid [1] |
| --- | --- | --- | --- |
| potent stimulators of KLK5 | highest permeability | CC(C)c1cc(O)c(C(=O)O)c(C(C)C)c1 [Compound A, 4,6-diisopropyl salicylic acid] | superior KLK5 activity as compared to salicylic acid |
| potent stimulators of KLK5 | highest permeability | CC(C)(C)c1cc(O)c(C(=O)O)c(C(C)(C)C)c1 [Compound B, 4,6-di-tert-butyl salicylic acid] | superior KLK5 activity as compared to salicylic acid |
